Assay [1] has as its system neurologic deficits secondary to cerebral ischemia. The note with it: cited from earlier work.
Assay [2] relates to neurologic deficits produced by unilateral carotid ligation. The note with it: cited from earlier work.
In assay [3] the test system is acute focal cerebral ischemia. On the set-up: species or system cats. The note with it: in vivo, ip.
Another assay concerns analgesic response. The note with it: cited from earlier work.

Like-named read-outs stand apart in the source and are kept apart here.

With `CN1CC[C@]23c4c5ccc(O)c4O[C@H]2[C@@H](O)C=C[C@H]3[C@H]1C5` [morphine], the “neurologic deficits secondary to cerebral ischemia” value in assay [1] (in vivo) is given as “exacerbates them”.
On to `C=CCN1CC[C@]23c4c5ccc(O)c4O[C@H]2C(=O)CC[C@@]3(O)[C@H]1C5` [naloxone, 17 - allyl - 4,5a - epoxy - 3,14 - dihydroxymorphinan - 6 - one], for which, in assay [1] (man, Lancet 2:272-275 (1981)), the “neurologic deficits secondary to cerebral ischemia” value is recorded as “can reverse neurologic deficits”. Also, in assay [2] (gerbils, temporary carotid occlusion, Levy et al. (1982)), the “neurologic function and infarct size” value is given as “did not produce improved neurologic function or alter infarct size”. In assay [2] (gerbils, intraperitoneal administration, Science 215:69-71 (1982)), the “neurologic deficits produced by unilateral carotid ligation” value is “can be reversed”. The “survival and neurologic function” value in assay [2] (several different models of stroke in gerbils, Holaday and D'Amato (1982)) is “no beneficial effect”. The “prolonging survival (mortality as a function of time following the cerebral artery occlusions)” value in assay [3] is recorded as “prolonged survival”.
Turning to `O=C1CC[C@@]2(O)[C@H]3Cc4ccc(O)c5c4[C@@]2(CCN3CC2CC2)[C@H]1O5` [naltrexone], the “prolonging survival (mortality as a function of time following the cerebral artery occlusions)” value in assay [3] was “prolonged survival”.
With “Dynorphin: opioid peptide first isolated from pituitary glands; natural compound's full 17 amino acid sequence”, the analgesic potency result in the assay with analgesic response (mice) is on record as “little or no analgesic potency”. Besides, in the assay on analgesic response (morphine-tolerant animals / tolerant hosts), the “effect on narcotic analgesia in tolerant animals” value was “potentiates the analgetic effect of both morphine and β-endorphin”. Moreover, in the assay on analgesic response (naive animals, analgesic response to morphine and β-endorphin / narcotic analgesics), the “effect on narcotic analgesia in naive animals” value is “inhibits, or antagonizes, the analgesic response to both morphine and β-endorphin”.

(Values after patent EP0147194B1 (Hosobuchi, Yoshio, priority 1983, dated 1989).)
